Measurements reported in patent US20130236568A1, “PHOSPHAPLATINS HAVING ANTI-ANGIOGENIC, ANTI-METASTATIC, AND PRO-APOPTOTIC PROPERTIES AND USES THEREOF” (Ohio University, priority 2011, published 2013).

Experiments:
PTEN = test: Expression of key genes with and without p53 inhibitor (Table 3): PTEN; type: cell-based, human; settings: positive = manifold increase, negative = decrease vs untreated cells
Method: Quantitative real-time PCR experiments were performed to estimate the expression of a selection of targeted genes. HUVEC cells (Lonza Walkersville, Frederick, Md.) were cultured on 0.1% gelatin-coated petri dishes by following standard protocols recommended by the vendor in a humidified incubator by maintaining 5% CO2 at 37° C. Human epithelial ovarian cancer cells (A2780) and cisplatin-resistant cells (A2780/C30) were cultured in RPMI 1640 with or without cisplatin (7 μM) and pyrodach-4 (180 μM) for 0, 3, 12 and 24 hours. […] HUVECs were treated with or without cisplatin (7 μM) or pyrodach-4 (90 or 180 μM) for various durations ranging from 1 hr. to 6 hrs.
(§1) Both treated and untreated cancer cells were maintained in RPMI 1640 medium with 10% fetal bovine serum, 2 μmol L-glutamine, 100 units/mL penicillin-streptomycin and 0.25 units/mL insulin solution, at 37° C. with 5% CO2. RNA was isolated from both the treated and untreated cells. […] The quantity and purity of RNA were determined by UV spectroscopy (NanoDrop 2000 Thermo Scientific, Wilmington, Del.). A minimum absorbance ratio index (ratio of the absorbance measured at 260 nm over that at 280 nm) of 1.9 was used as an acceptable purity. […] The target gene was labeled with a blue dye (FAM, absorbance: 494 nm, emission: 518 nm) while the reference gene was tagged with a green dye (VIC, absorbance: 538 nm, emission: 554 nm). […]

PUMA = test: Quantitative real-time PCR, PUMA expression in HUVEC; type: cell-based, human; settings: HUVEC treated with pyrodach-4
Method: Evaluations of selected gene expressions in Human Umbilical Vein Endothelial Cells (HUVEC) and Human Ovarian Cancer Cells by quantitative reverse transcriptase polymerase chain reaction (PCR)
Quantitative real-time PCR experiments were performed to estimate the expression of a selection of targeted genes. HUVEC cells (Lonza Walkersville, Frederick, Md.) were cultured on 0.1% gelatin-coated petri dishes by following standard protocols recommended by the vendor in a humidified incubator by maintaining 5% CO2 at 37° C. […]
as §1, with “CO2.” for “CO2. RNA was isolated from both the treated and untreated cells.”
The threshold cycle number (Ct), the point at which the fluorescence of the qPCR reaction just exceeds the threshold fluorescence of the detection system, was determined. […]

A2780/C30 cells = test: Cell death detection assay with ELISA, A2780/C30 cells; type: cell-based, human
Method: In these experiments, ovarian cancer cells were treated with pyrodach-4 in the presence and absence of inhibitors PFT-α (an inhibitor p53) and LY29400 (an inhibitor of PI3K).
The different treatment groups from left to right are: control, 7 μM cisplatin, Con+PFT-α, 180 μM D4, 180 μM D4+PFT-α, 180 μM D4+LY294002. Apoptosis was quantified using the Cell Death Detection ELISA from Roche.
A2780 and A2780/C30 cells were grown in monolayers, trypsinized and suspended in supplemented RPMI 1640 media as described in Example 5. All the treatments on the Fc/A2780 and Fc/A2780/C30 cell samples were carried out in triplicate. The ELISA was performed according to the manufacturer's instructions. Briefly, 50,000 cells were plated for each treatment and the cells were allowed to adhere for 4-6 hours. Cells were then either incubated with media alone (untreated sample) or with pyrodach-4 or cisplatin in the concentrations indicated above. DNA of the treated and untreated cells was assayed for nucleosomal DNA using the ELISA kit (purchased from Roche Diagnostics, Mannheim, Germany). The cells were lysed for 30 minutes using the lysis buffer. After centrifuging, 10% (v/v) supernanant was incubated with anti-histone-biotin and anti-DNA-peroxidase. After two hour incubation, the pellets were washed three times and incubated with the substrate solution. The absorbances were measured at 405 and 490 nm for each treatment type using SPECTRA Max M2 multichannel fluorescence plate reader (Molecular Devices, Sunnyvale, Calif.). The absorbances of the treated samples were normalized to the substrate solution.

[1] = tested on: yeast deletion collection; test: Genome-wide fitness assay in yeast (pooled deletion strains); type: cell-based
Description: The around 6000 strains in the yeast deletion collection can be studied in a single culture by using a microarray to detect the 20 bp DNA “barcodes” or “tags” contained in each strain. Barcode intensities are compared across time-points or across conditions to analyze the relative fitness of each strain. This development of the pooled fitness assay has greatly facilitated the functional annotation of the yeast genome by making genome-wide gene-deletion studies faster and easier, and has led to the development of high throughput methods for studying drug action in yeast. Pooled screens can be used for identifying gene functions, measuring the functional relatedness of gene pairs in order to group genes into pathways, identifying drug targets, and determining a drug's mechanism of action. This process involves five main steps: preparing aliquots of pooled cells, pooled growth, isolation of genomic DNA and PCR amplification of the barcodes, array hybridization (or next generation sequencing), and data analysis.
The pooled fitness assay involves five main steps (FIG. 3). First, the deletion collection is grown on solid media in arrayed format and the resulting cells are pooled and frozen to make cell aliquots that will be used for starting growth experiments. Cells are then grown in the desired conditions, typically for 5 to 20 generations. The barcodes from the resulting cell samples are prepared for hybridization by isolation of the genomic DNA and PCR amplification of the barcodes. The barcodes are amplified in two reactions to prevent crosstalk between the uptag and downtag primers. The resulting PCR products are then hybridized to tag arrays with one array needed per cell sample. Data is then analyzed to determine differences in strain representation between pairs of samples.
To analyze the genome wide effects of pyrodach-2 and -4, we screened 2 collections of strains, 1200 essential genes as heterozygote deletion mutants (reducing functional gene dose from 2 to 1) and 4800 non-essential genes as complete deletions (reducing functional gene dose from 2 to 0). Both compounds were screened at the highest dose possible (200 μM final concentration) to increase the likelihood of finding compound-specific sensitive strains.
Fitness profiling of pooled deletion strains involves […] main steps: • 1. Strains are first pooled at approximately equal abundance. • 2. The pool is grown competitively in the condition of choice and a control condition. If a gene is sensitive to the treatment condition, the strain carrying this deletion will grow more slowly and become under-represented relative to the control culture (purple strain). Resistant strains will grow faster and become over-represented (not shown). • 3. Genomic DNA is isolated from cells harvested at the end of pooled growth, and barcodes are amplified from the genomic DNA with universal primers. • 4. PCR products are then hybridized to an array that detects the tag sequences, giving tag intensities for the two samples. • 5. The treatment and control sample are then compared to determine the relative fitness of each strain. Note that only the purple strain is described as sensitive to the condition. While the red strain grows more slowly than the blue strain in the treatment, this growth difference in not of interest because it matches that seen in the control.

“trans-(±)-1,2-cyclohexanediamine-trans-dihydroxo(pyrophosphato) platinum(IV) [Pyrodach-4]” was tested, and the “Expression of PTEN” value (PTEN; Pyrodach-4 + PFT-α) was −1.3, the “Expression of PTEN” value (PTEN; Pyrodach-4 treatment only) was 5.5 and the “Over-expression of PUMA” value (PUMA) was 10-15 fold. For the same substance, the “Apoptotic cell death (ELISA absorbance)” value (A2780/C30 cells; 7 μM cisplatin or 180 μM D4) was “unambiguously showed cell death”, the “Effect of p53 and PI3K inhibitors on apoptotic cell death (ELISA absorbance)” value (A2780/C30 cells; 180 μM D4 with PFT-α 15 μM or LY294002 30 μM) was “no effects” and the “Tolerability by the yeast cell (few sensitive strains)” value ([1]; highest dose possible, 200 μM final concentration) was “well tolerated by the cell”. The “Functions enriched among sensitive strains” value ([1]; yeast deletion strains, 200 μM final concentration) was 1) iron and copper transport and 2) metal-regulated transcription factors and the “Sensitivity of DNA damage/repair genes (NER, HRR, PRR)” value ([1]; yeast deletion strains, phosphaplatins at 200 μM final concentration) was “not a single gene involved in DNA repair or other DNA metabolic processes showed any sensitivity as a mutant”.
